Data on one compound can be found in the NIST ThermoML archive (doi:10.1016/j.jct.2016.09.036).

Series [1] is described as follows: Molar enthalpy of transition or fusion. As to conditions: Crystal 1; DSC.
The conditions of series [2]: for mass density: 298.15 K, 101.33 kPa.

Numbers after ± are expanded uncertainties.

`O=C(NC[C@H]1CN(c2ccc(N3CCOCC3=O)cc2)C(=O)O1)c1ccc(Cl)s1` [Rivaroxaban]: the “Molar enthalpy of transition or fusion” value in series [1] is 11.2 ± 0.502 kcal/mol. The mass density in series [2] (Crystal 1, Pycnometric method) turned out to be 1517.1 ± 2.1 kg/m3; in series [2] (Crystal 1, X-ray diffraction), 1516.7 ± 7.4 kg/m3; in series [2] (Metastable crystal, Pycnometric method) it was 1355.3 ± 2.1 kg/m3; in series [2] (Metastable crystal, X-ray diffraction) it was 1362.9 ± 25 kg/m3. Moreover, the Triple point temperature in series [2] (Crystal 1, DSC) was determined as 501.41 ± 7.8 K.

For orientation: mass density means the mass of a sample divided by its volume.
